Laboratory results reported in US7388004B2, “Acid-group-substituted diphenylazetidinones, process for their preparation, medicaments comprising these compounds, and their use” (Sanofi-Aventis Deutschland GmbH, priority 2002, dated 2008).

Tested on: cholesterol absorption (uptake of 14C-cholesterol by the liver)
Assay: Cholesterol absorption test: uptake of 14C-cholesterol by the liver after peroral test meal
Type: in vivo, NMRI mice
Settings: dose at which uptake of 14C-cholesterol by the liver was halved (50%) vs control group, mouse
From the text: Effect of the compounds of the invention on cholesterol absorption and 3H-taurocholic acid excretion using fecal excrement of mice, rats or hamsters
NMRI mice, Wistar rats, or Golden Syrian hamsters (in groups of n=4-6) were kept in metabolic cages, where they were fed with a standard diet (Altromin, Lage (Lippe)). The afternoon prior to the administration of the radioactive tracers (14C-cholesterol), the feed was removed and the animals were adapted to grates.
Additionally, the animals were labeled s.c. with 3H-TCA (taurocholic acid) (for example 1 μCi/mouse up to 5 μCi/rat) 24 hours prior to the peroral administration of the test meal (14C-cholesterol in Intralipid® 20, Pharmacia-Upjohn).
Cholesterol absorption test: 0.25 ml/mouse Intralipid®D 20 (Pharmacia-Upjohn) ((spiked with 0.25 μCi of 14C-cholesterol in 0.1 mg of cholesterol) was administered perorally by gavage.
Test substances were prepared separately in 0.5% methylcellulose (Sigma)/5% Solutol (BASF, Ludwigshafen) or a suitable vehicle.
The administration volume of the test substance was 0.5 ml/mouse. The test substance was administered immediately prior to the test meal (Intralipid labeled with 14C-cholesterol) (cholesterol absorption test).
The feces were collected over a period of 24 h. Fecal elimination of 14C-cholesterol and 3H-taurocholic acid (TCA) was determined after 24 hours.
The livers were removed and homogenized, and aliquots were incinerated in an oximate (Model 307, Packard) to determine the amount of 14C-cholesterol that had been taken up/absorbed.
The amount of-14C-cholesterol taken up by the liver was based on the administered dose. The ED50 values were interpolated from a dose-effect curve as the dose at which the uptake of 14C-cholesterol by the liver was halved (50%), based on a control group.

Structure (SMILES)	ED50 (liver) [mg/mouse]
COc1ccc(C2C(CCC(O)c3ccc(F)cc3)C(=O)N2c2ccc(CNCCCCS(=O)(=O)O)cc2)cc1 (stereo not shown) [I, 4-{4-[3-[3-(4-Fluorophenyl)-3-hydroxypropyl]-2-(4-methoxyphenyl)-4-oxoazetidin-1-yl]benzylamino}butane-1-sulfonic acid]	1.0
COc1ccc(C2C(CCC(O)c3ccc(F)cc3)C(=O)N2c2ccc(OCCCCN(C)CCS(=O)(=O)O)cc2)cc1 (stereo not shown) [II, 2-[(4-{4-[3-[3-(4-Fluorophenyl)-3-hydroxypropyl]-2-(4-methoxyphenyl)-4-oxoazetidin-1-yl]phenoxy}butyl)methylamino]ethylsulfonic acid]	>0.1
O=C1C(CCC(O)c2ccc(F)cc2)C(c2ccc(OCCCCNCCCCCCOP(=O)(O)O)cc2)N1c1ccc(F)cc1 (stereo not shown) [IV, Phosphoric acid mono{6-[4-(4-{1-(4-fluorophenyl)-3-[3-(4-fluorofluorophenyl)-3-hydroxypropyl]-4-oxoazetidin-2-yl}phenoxy)butylamino]hexyl}ester]	0.3
COc1ccc(C2C(CCC(O)c3ccc(F)cc3)C(=O)N2c2ccc(CNC(=O)CS(=O)(=O)O)cc2)cc1 (stereo not shown) [IX, {4-[3-[3-(4-Fluorophenyl)-3-hydroxypropyl]-2-(4-methoxyphenyl)-4-oxoazetidin-1-yl]benzylcarbamoyl}methanesulfonic acid]	<1.0
O=C(CS(=O)(=O)O)NCc1ccc(C2C(CCC(O)c3ccc(F)cc3)C(=O)N2c2ccc(F)cc2)cc1 (stereo not shown) [VIII, (4-{1-(4-Fluorophenyl)-3-[3-(4-fluorophenyl)-3-hydroxypropyl]-4-oxoazetidin-2-yl}benzylcarbamoyl)methanesulfonic acid]	0.3
O=C(O)CCC(=O)NCc1ccc(C2C(CCC(O)c3ccc(F)cc3)C(=O)N2c2ccc(F)cc2)cc1 (stereo not shown) [X, N-(4-{1-(4-Fluorophenyl)-3-[3-(4-fluorophenyl)-3-hydroxypropyl]-4-oxoazetidin-2-yl}benzyl)succinaminic acid]	<1.0
COc1ccc(C2C(CCC(O)c3ccc(F)cc3)C(=O)N2c2ccc(CNC(=O)CCCCCCCCCCC(=O)O)cc2)cc1 (stereo not shown) [XIII, 11-{4-[3-[3-(4-Fluorophenyl)-3-hydroxypropyl]-2-(4-methoxyphenyl)-4-oxoazetidin-1-yl]benzylcarbamoyl}undecanoic acid]	<0.1
